Experimental data published in ChEMBL document CHEMBL5352419, “Design, synthesis, and biological evaluation of tetrahydroquinoline amphiphiles as membrane-targeting antimicrobials against pathogenic bacteria and fungi” (Eur J Med Chem, 2022).
Values after ≈ are worked out from the molar mass of the structure shown.

What was measured:
[1] = Hemolytic activity in rabbit RBC incubated for 1 hr by absorbance based microplate reader assay; assay type: toxicity, cell-based, Oryctolagus cuniculus, Erythrocyte; details: rabbit red blood cells (erythrocytes)
Staphylococcus aureus [2] = assay: Antimicrobial activity against Staphylococcus aureus ATCC29213 assessed as bacterial growth inhibition incubated for 24 hrs by Muller Hinton broth based dilution assay; assay type: functional
Staphylococcus aureus [3] = assay: Antimicrobial activity against methicillin-resistant Staphylococcus aureus NCTC10442 assessed as bacterial growth inhibition incubated for 24 hrs by Muller Hinton broth based dilution assay; assay type: functional
Escherichia coli = assay: Antimicrobial activity against Escherichia coli ATCC25922 assessed as bacterial growth inhibition incubated for 24 hrs by Muller Hinton broth based dilution assay; assay type: functional
Staphylococcus aureus [4] = assay: Antimicrobial activity against methicillin-resistant Staphylococcus aureus N315 assessed as bacterial growth inhibition incubated for 24 hrs by Muller Hinton broth based dilution assay; assay type: functional
Candida albicans [5] = assay: Antimicrobial activity against Candida albicans ATCC10231 assessed as fungal growth inhibition incubated for 48 hrs by Sabouraud Dextrose broth based dilution assay; assay type: functional
Candida albicans [6] = assay: Antimicrobial activity against Candida albicans CMCC98001 assessed as fungal growth inhibition incubated for 48 hrs by Sabouraud Dextrose broth based dilution assay; assay type: functional

SMILES	HC50 at 1 h [1]	MIC (Staphylococcus aureus [2])	MIC (Staphylococcus aureus [3])	MIC (Escherichia coli)	MIC (Staphylococcus aureus [4])	MIC (Candida albicans [5])	MIC (Candida albicans [6])
CCN(CC)CCCCOc1ccc2c(c1)CCCN2CC=C(C)C	> 200 µg/mL	> 50 µg/mL	> 50 µg/mL	> 50 µg/mL	> 50 µg/mL	> 50 µg/mL	> 50 µg/mL
CCCCCCCN1CCCc2cc(OCCCCCCCCBr)ccc21	> 200 µg/mL	> 50 µg/mL	> 50 µg/mL	> 50 µg/mL	> 50 µg/mL	> 50 µg/mL	> 50 µg/mL
CC(C)=CCN1CCCc2cc(OCCCCBr)ccc21	> 200 µg/mL	25 µg/mL (≈ 71 µM)	25 µg/mL (≈ 71 µM)	> 50 µg/mL	12.5 µg/mL (≈ 35.5 µM)	> 50 µg/mL	> 50 µg/mL
CC(C)=CCN1CCCc2cc(OCCCCCCCCCCCCBr)ccc21	> 200 µg/mL	> 50 µg/mL	> 50 µg/mL	> 50 µg/mL	> 50 µg/mL	> 50 µg/mL	> 50 µg/mL
CCCCCCCCCN1CCCc2cc(OCCCCCCCCNC(=N)N)ccc21	> 200 µg/mL	3.12 µg/mL (≈ 7.03 µM)	3.12 µg/mL (≈ 7.03 µM)	25 µg/mL (≈ 56.2 µM)	3.12 µg/mL (≈ 7.03 µM)	0.78 µg/mL (≈ 1.75 µM)	1.56 µg/mL (≈ 3.51 µM)
CNCCCCOc1ccc2c(c1)CCCN2CC=C(C)C	> 200 µg/mL	25 µg/mL (≈ 82.7 µM)	12.5 µg/mL (≈ 41.3 µM)	25 µg/mL (≈ 82.7 µM)	6.25 µg/mL (≈ 20.7 µM)	50 µg/mL (≈ 165 µM)	50 µg/mL (≈ 165 µM)
CCCCCCCCCN1CCCc2cc(OCC(=O)OCC)ccc21	> 200 µg/mL	> 50 µg/mL	> 50 µg/mL	> 50 µg/mL	> 50 µg/mL	> 50 µg/mL	> 50 µg/mL
CC(C)=CCN1CCCc2cc(OCCCCN3CCSCC3)ccc21	> 200 µg/mL	> 50 µg/mL	> 50 µg/mL	> 50 µg/mL	> 50 µg/mL	> 50 µg/mL	> 50 µg/mL
CCCCCNCCCCOc1ccc2c(c1)CCCN2CC=C(C)C	146 µg/mL	6.25 µg/mL (≈ 17.4 µM)	6.25 µg/mL (≈ 17.4 µM)	50 µg/mL (≈ 139 µM)	6.25 µg/mL (≈ 17.4 µM)	> 50 µg/mL	> 50 µg/mL
C[C@@H]1C/C=C/C=C/C=C/C=C/[C@H](O[C@@H]2O[C@H](C)[C@@H](O)[C@H](N)[C@@H]2O)C[C@@H]2O[C@](O)(C[C@@H](O)C[C@H]3O[C@@H]3/C=C/C(=O)O1)C[C@H](O)[C@H]2C(=O)O [NATAMYCIN]	–	–	–	–	–	6.25 µg/mL (≈ 9.39 µM)	6.25 µg/mL (≈ 9.39 µM)
CCCCCCCN1CCCc2cc(OCC(=O)N[C@@H](CCCNC(=N)N)C(=O)N[C@@H](CCCNC(=N)N)C(=O)OC)ccc21	> 200 µg/mL	6.25 µg/mL (≈ 9.89 µM)	3.12 µg/mL (≈ 4.95 µM)	50 µg/mL (≈ 79.1 µM)	3.12 µg/mL (≈ 4.95 µM)	> 50 µg/mL	50 µg/mL (≈ 79.1 µM)
CC(C)=CCN1CCCc2cc(OCCCCN3CCCCC3)ccc21	> 200 µg/mL	> 50 µg/mL	> 50 µg/mL	> 50 µg/mL	> 50 µg/mL	> 50 µg/mL	> 50 µg/mL
CC(C)=CCN1CCCc2cc(OCCCCCCCCCCBr)ccc21	> 200 µg/mL	3.12 µg/mL (≈ 7.16 µM)	3.12 µg/mL (≈ 7.16 µM)	25 µg/mL (≈ 57.3 µM)	3.12 µg/mL (≈ 7.16 µM)	12.5 µg/mL (≈ 28.6 µM)	12.5 µg/mL (≈ 28.6 µM)
CCCCCN1CCCc2cc(OCC(=O)OCC)ccc21	> 200 µg/mL	> 50 µg/mL	> 50 µg/mL	> 50 µg/mL	> 50 µg/mL	> 50 µg/mL	> 50 µg/mL
CC(C)=CCN1CCCc2cc(O)ccc21	> 200 µg/mL	50 µg/mL (≈ 230 µM)	50 µg/mL (≈ 230 µM)	> 50 µg/mL	50 µg/mL (≈ 230 µM)	> 50 µg/mL	> 50 µg/mL
CCCN1CCCc2cc(OCCCCNC(=N)N)ccc21	> 200 µg/mL	12.5 µg/mL (≈ 41.1 µM)	12.5 µg/mL (≈ 41.1 µM)	> 50 µg/mL	6.25 µg/mL (≈ 20.5 µM)	> 50 µg/mL	> 50 µg/mL
